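Each compound was tested at five concentrations against cells in 96-well plates for 48 hours. GI50 is the concentration that inhibits growth by half.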 Activity calls are given as the source filed them. No stated cut-off is given here; in the data, active = GI50 up to about 1.1 µM and inactive = higher.
Experiments:
Experiment in all cases: DTP human tumour cell line panel, 48 h
[1] = system: HCT-116
[2] = system: CAKI-1
[3] = system: NCI-H460
[4] = system: OVCAR-4
[5] = system: UACC-62
[6] = system: RPMI-8226
[7] = system: SN12C
[8] = system: LOX IMVI
[9] = system: EKVX
[10] = system: OVCAR-3
[11] = system: MDA-N
[12] = system: MOLT-4
[13] = system: SF-539
[14] = system: Malme-3M
[15] = system: MDA-MB-435
[16] = system: COLO 205
[17] = system: SF-295
[18] = system: U-251
[19] = system: HT-29
[20] = system: A498

Measured: GI50

COP1(=O)OCc2cnccc2O1 (centres undefined)
inactive: [1] > 100 µM | [2] > 100 µM | [3] > 100 µM | [4] > 100 µM | [5] > 100 µM | [6] > 100 µM | [7] > 100 µM | [8] > 100 µM | [9] > 100 µM | [10] > 100 µM | [11] > 100 µM | [12] > 100 µM | [13] > 100 µM | [14] > 100 µM | [15] > 100 µM | [16] > 100 µM | [17] > 100 µM | [18] > 100 µM | [19] > 100 µM

COc1cccc(N2CCc3c(C)c(C#N)c4nc5ccccc5n4c32)c1
inactive: [1] > 100 µM | [3] > 100 µM | [4] > 100 µM | [5] > 100 µM | [7] > 100 µM | [8] > 100 µM | [10] > 100 µM | [11] > 100 µM | [13] 45.7 µM | [14] > 100 µM | [15] > 100 µM | [16] > 100 µM | [17] > 100 µM | [18] 53.6 µM | [20] > 100 µM | [19] > 100 µM

O=c1[nH]c2c(C(F)(F)F)c(Cl)c(-c3ccccc3)nc2o1
inactive: [1] 16.1 µM | [2] 34.4 µM | [3] 23.9 µM | [4] 19.6 µM | [5] 75.5 µM | [7] 10.9 µM | [8] 27.1 µM | [9] 14.8 µM | [10] 17.3 µM | [11] 14.8 µM | [12] 13.7 µM | [15] 28.3 µM | [16] 14.9 µM | [17] 13.3 µM | [18] 19.3 µM | [20] 57.8 µM | [19] 23.3 µM

N#Cc1sc2c(c1OC(=O)c1ccccc1)c(=O)n(-c1ccccc1)c(=S)n2-c1ccccc1
inactive: [1] 19.9 µM | [2] 35.9 µM | [3] 30.3 µM | [4] 21.7 µM | [5] 19.9 µM | [6] 23.6 µM | [7] 26.4 µM | [8] 19.8 µM | [9] 28.6 µM | [10] 28.1 µM | [11] 26.3 µM | [12] 20.6 µM | [13] 23.8 µM | [14] 20.5 µM | [15] 24 µM | [16] 16.6 µM | [17] 28.2 µM | [18] 20.1 µM | [19] 32.7 µM

Oc1nc2nc3ccccc3nc2nc1O
inactive: [1] > 100 µM | [2] > 100 µM | [3] > 100 µM | [4] > 100 µM | [5] > 100 µM | [6] > 100 µM | [7] > 100 µM | [8] > 100 µM | [9] > 100 µM | [10] > 100 µM | [11] > 100 µM | [12] > 100 µM | [13] > 100 µM | [14] > 100 µM | [15] > 100 µM | [16] > 100 µM | [17] > 100 µM | [18] > 100 µM | [19] > 100 µM

Cc1[nH]c(=O)[nH]c(=O)c1N(CCF)CCCl [FLUORODOPAN]
inactive: [1] 439 µM | [2] 181 µM | [4] 353 µM | [5] 283 µM | [10] 442 µM | [11] 409 µM | [13] 199 µM | [14] 349 µM | [15] 419 µM | [16] 394 µM | [17] 284 µM | [18] 369 µM | [20] 418 µM | [19] 442 µM
